The record followed here is PubChem BioAssay AID977607 (Broad Institute, 2014).

The structures appear in SMILES notation. The source made the active and inactive calls.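 How the source made its calls: active means curve reaches 40% activation over neutral controls at an AC40 no higher than the top valid tested concentration; inconclusive means no clear call, values can overlap the other calls; inactive means signal moving opposite to the expected increase, and the rest.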

In the assay the test system is INS-1E GLuc insulin secretion reporter, luminescence, 2-3 h. The experiment in a line: activators of glucose-dependent insulin secretion, dose response, cell-based, INS-1E, Gaussia luciferase, luminescence, cherry-pick, set 2 (AID 977607).
For the compound `COc1cc(CN2[C@@H]3CNC[C@H]2C3c2ccc(/C=C/c3ccccc3)cc2)cc(OC)c1` (stereo not given in full), the AC40 was 10.3 µM.
As to `CCS(=O)(=O)Nc1ccc(-c2cc(-c3ccccc3)c3cc(C)ccc3n2)cc1`, the AC40 was 6.45 µM.
As to `COc1ccc(C2=NN(c3ccc(C(=O)O)cc3)C(c3ccc(OC)c(OC)c3)C2)cc1` (stereo not given), the AC40 is 4.29 µM.
With `CCCCc1c(-c2cccc(OC)c2)ncn1CCc1ccccc1OC`, the AC40 was 11.8 µM.
As to `CCOC(=O)Cn1c(=NC(=O)c2nc3ccccc3s2)sc2cc(S(N)(=O)=O)ccc21`, the AC40 is 11.4 µM.
`O=c1c2ccccc2sn1-c1ccccc1F`: the AC40 was 3.87 µM.
`CN(C)S(=O)(=O)c1cccc(-n2sc3ccccc3c2=O)c1`: the AC40 was 4.6 µM.
Turning to `OC(c1ccccc1)(c1ccccc1)C1CCN(CCCOc2ccc(-c3ccc(F)cc3F)cc2)CC1`, the AC40 was 3.89 µM.
`Cc1ccc(C)c(OCC(=O)Nc2nonc2NC(=O)COc2cc(C)ccc2C)c1`: the AC40 is 5.44 µM.
`CCC(=NC(C)c1ccccc1)c1c(O)[nH]c(=O)[nH]c1=O` (stereo not given): the AC40 was 11.1 µM.
For the compound `CC1(C(=O)NS(=O)(=O)c2ccccc2Cl)CCN1C(=O)C1(c2ccccc2)CCCC1` (stereo not given), the AC40 was 19.3 µM.
Take `Cc1ccc(NC(=O)c2oc3ccc(S(=O)(=O)N4CCOCC4)cc3c2C)cc1C`: the AC40 is 15.6 µM.
`O=c1c2ccc(F)cc2sn1-c1ccccc1`: the AC40 is 4.2 µM.
On to `CCCn1c2ccccc2c2cn[nH]c(=O)c21`, for which the AC40 was 16.4 µM.
In the case of `NS(=O)(=O)c1ccc(N=Cc2c(O)n(C3CCCCC3)c(=O)n(C3CCCCC3)c2=O)cc1`, the AC40 is 16 µM.
In the case of `Cc1cccc(Cn2ccc(-c3ccc(Cl)cc3)c(C#N)c2=O)c1`, the AC40 was 7 µM.
On to `CCCCc1c(-c2ccc(F)cc2F)ncn1CCc1ccccc1OC`, for which the AC40 is 8.96 µM.
Regarding `CCN(CC)c1ccc(N=Cc2c(O)n(Cc3ccccc3)c(=O)[nH]c2=O)cc1`, the AC40 is 11.3 µM.
Take `COc1ccc2c(c1)C(=NNC(=O)c1ccccn1)c1cc(OC)ccc1-2`: the AC40 is 3.1 µM.
With `O=C(NC1CCCCC1)C(c1ccc(F)cc1)N(Cc1ccccc1)C(=O)CN1C(=O)c2ccccc2S1(=O)=O` (stereo not given), the AC40 was 27.1 µM.
The value for `CCOc1ccc(CN2C(=O)c3ccccc3C2=O)cc1C(=O)Nc1nnc(SCC)s1` was 13.6 µM.
The figure for `O=c1c(C=Nc2ccc(Oc3ccccc3)cc2)c[nH]n1-c1cccc(Cl)n1` is 6.27 µM; for `O=C(Nc1ccccc1)c1nnsc1S(=O)(=O)c1ccc(Cl)cc1` it is 1.21 µM; for `NC1=NC[C@H](CC2CCCCC2)N1CCc1cc(C(F)(F)F)cc(C(F)(F)F)c1` it is 16.6 µM.
The figure for `OC(CNCCC1C=Nc2ccccc21)Cn1c2ccc(Cl)cc2c2cc(Cl)ccc21` (stereo not given) is 4.84 µM; for `COc1ccccc1C(=O)Nc1c2c(nn1-c1cccc(C)c1C)CS(=O)(=O)C2` it is 7.77 µM; for `COc1ccc(-c2ccc(C3[C@@H]4CN(Cc5cccc(OC)c5)C[C@H]3N4)cc2)cc1` (stereo not given in full) it is 2.47 µM.
Consider `CCOC(=O)c1cnc2ccc(Cl)cc2c1Nc1ccc(S(=O)(=O)Nc2ncccn2)cc1`, for which the AC40 is 3.45 µM.
For `C/C=C/c1ccc(C2[C@H]3CNC[C@@H]2N3Cc2cc(-c3ccccc3)on2)cc1` (stereo not given in full), the AC40 is 9.74 µM.
The value for `CCN1CCN(Cc2ccc(NC(=O)c3cccc(-c4ccc5nc(NC(=O)C6CC6)sc5n4)c3)cc2C(F)(F)F)CC1` was 11.4 µM; that for `COc1ccc(CNCC(O)COc2ccc(C(C)(C)c3ccccc3)cc2)cc1` (stereo not given) was 6.55 µM.
The value for `Cc1ccc(-c2n[nH]c(=S)n2/N=C/c2c(C)nn(-c3ccccc3)c2C)cc1` was 11.2 µM; that for `Cc1nc(N)c(C#N)c(-c2cccnc2)c1C` was 14.2 µM.
Take `FC(F)(F)c1cc(CCN2CCNC[C@@H]2CC2CCCCC2)cc(C(F)(F)F)c1`: the AC40 was 5.27 µM.
`COc1ccc(Cc2nnc(NC(=O)Cc3cccs3)s2)cc1OC`: the AC40 was 0.234 µM.
As to `Cn1c(=O)oc2cc(S(=O)(=O)N3CCC(C(=O)Nc4ccc(OC(F)(F)F)cc4)CC3)ccc21`, the AC40 was 7.48 µM.
The value for `COc1ccc(-c2nnn(Cc3nc(N)nc(N4CCOCC4)n3)n2)cc1OC` was 1.67 µM; that for `NC(N)=N/N=C/c1ccc(OCc2ccccc2Cl)cc1` was 16.4 µM.
Regarding `Cc1ccc(CC2(OCCN(C)C)CCC(C(C)(C)C)CC2)cc1` (stereo not given), the AC40 is 13.9 µM.
Turning to `O=C(N/N=C/c1ccc(Cl)cc1Cl)Nc1ccccc1`, the AC40 was 7.74 µM.
As to `COC(=O)c1ccc2c(=O)[nH]c(CSc3nc(-c4ccc(F)cc4)cs3)nc2c1`, the AC40 was 5.86 µM.
The value for `CCOc1nc(NC(=O)NS(=O)(=O)c2cccc(Cl)c2)nc(-c2ccccc2)n1` was > 35 µM (inactive); that for `COc1cccc(-c2ccc(C3[C@@H]4CN(Cc5cccc(F)c5)C[C@H]3N4)cc2)c1` (stereo not given in full) was 4.47 µM.
The figure for `COc1cc2c(cc1OC)[C@H](C)N(C(=O)NCc1ccccc1)CC2` is 8 µM; for `CCC(=O)Nc1ccc(NC(=S)NC(=O)c2oc3ccccc3c2C)cc1` it is 5.76 µM; for `O=C1c2cccnc2C(Nc2cccc(F)c2)N1Cc1ccco1` (stereo not given) it is 28.5 µM.
The figure for `CC(C)CC#Cc1ccc2c(c1)O[C@@H](CN(C)Cc1ccc(F)cc1)[C@H](C)CN([C@H](C)CO)S2(=O)=O` is 10.4 µM.
`Cc1ccc(/C=N/NC(=O)COc2ccccc2-c2ccccc2)cc1`: the AC40 is 7.03 µM.
The value for `CCOc1ccc(-c2nnn(CC(=O)Nc3ccccc3OC)n2)cc1OCC` was 2.04 µM.
The value for `CC(C)n1cc(/C(N)=N/O)c(=O)n(Cc2ccccc2)c1=O` was 9.39 µM.
Consider `Cc1cccc(OCC(=O)Nc2ccc(NC(=O)c3ccco3)cc2)c1`, for which the AC40 was 17.8 µM.
The value for `COc1cc(NC(=O)c2cccc(C)c2)ccc1NC(=O)c1cc2ccccc2o1` was 3.24 µM; that for `O=C(Nc1nc(-c2ccc(-c3ccccc3)cc2)cs1)C1=COCCO1` was 6.8 µM.
The figure for `Cc1ccc(C)c(OCC(=O)N/N=C/c2c(C)nn(-c3ccccc3)c2Cl)c1C` is 3.2 µM; for `CCOc1ccc(Nc2oc(-c3ccc(Cl)cc3)nc2C#N)cc1` it is 5.14 µM.
As for `O=C(O)c1ccc(/C=N/n2c(C3CCCCC3)n[nH]c2=S)cc1`, the AC40 was 5.87 µM.
For `CCOC(=O)c1cc2sccc2n1CC(=O)N1c2ccccc2CC1C` (stereo not given), the AC40 was 3.59 µM.
In the case of `CC(=NC(C)c1ccccc1)c1c(O)[nH]c(=O)[nH]c1=O` (stereo not given), the AC40 is 15 µM.
The value for `CCOC(=O)c1cnc2c(Cl)c(Cl)ccc2c1NCCN1CCOCC1` was > 35 µM (inactive); that for `COC(=O)C1=C(C)N(Cc2cccc(C(F)(F)F)c2)C(=NCc2ccc(C(F)(F)F)cc2)NC1c1ccccc1` (stereo not given) was 9.69 µM.
For `COc1ccc(/C=N/NC(=O)Cn2nnc3ccccc32)cc1OC`, the AC40 is 24.4 µM.
Regarding `CNc1nc(Sc2ccccc2)cc(C(F)(F)F)n1`, the AC40 was > 35 µM (inactive).
Take `Cc1ccc2oc(-c3ccc(NC(=O)c4ccc5c(c4)OCO5)cc3)nc2c1`: the AC40 was 4.81 µM.
With `CN(C(=O)c1ccc2c(c1)SC1=NS(=O)(=O)CCN12)C(c1ccccc1)c1ccccc1`, the AC40 was 0.518 µM.
With `O=C(Nc1nnc(-c2ccccc2SCc2ccccc2F)s1)Nc1ccccc1F`, the AC40 is 16.7 µM.
`CN(C)CCNC(=O)c1cc2c(s1)-c1ccc(Cl)cc1SC2`: the AC40 was 6.54 µM.
In the case of `COc1ccc(C2CNC(=O)C2)cc1OC1CCCC1` (stereo not given), the AC40 is 1.98 µM.
For `Cc1cc(C)cc(OCCCN2CCC(C(O)(c3ccccc3)c3ccccc3)CC2)c1`, the AC40 is 13 µM.
On to `COc1ccc(C(=O)Nc2ccccc2C(=O)Nc2ccncc2)cc1`, for which the AC40 is 0.413 µM.
For `CCC(C)c1ccccc1OCCCN(C)Cc1ccccc1` (stereo not given), the AC40 is 7.97 µM.
The value for `Cn1c(=O)c2c(nc3n2CCCN3CCc2ccccc2)n(C)c1=O` was > 35 µM (inactive); that for `CC(C)(C)OC(=O)N[C@@H](Cc1ccccc1)c1nnc(S(=O)(=O)Cc2ccccc2)o1` was 3.69 µM; that for `COc1ccccc1CCn1cnc(-c2ccccc2OC)c1CC(C)C` was 14.6 µM.
The figure for `CCCCc1c(-c2ccccc2OC)ncn1Cc1ccccc1C` is 10.4 µM.
The figure for `Cc1ccccc1-n1sc2cc(F)ccc2c1=O` is 1.56 µM.
Take `CCCCCCn1c(-c2cccs2)n[nH]c1=S`: the AC40 is > 35 µM (inactive).
Consider `O=C(N/N=C/c1ccco1)c1cc(-c2ccc3ccccc3c2)n[nH]1`, for which the AC40 was 4.19 µM.
The figure for `CCOC(=O)C1(C)CCCCN1C(=O)c1cccc(Cl)c1` (stereo not given) is > 35 µM (inactive); for `COc1ccc(C2=NN(C(=O)CCCC(=O)O)C(c3cccs3)C2)cc1OC` (stereo not given) it is 11.6 µM; for `COCCn1c(=NC(=O)c2cc(Cl)sc2Cl)sc2cc(S(N)(=O)=O)ccc21` it is 7.51 µM.
For `CS(=O)(=O)N(Cc1ccc(Cl)cc1)c1ccc(C(=O)NCCC2=CCCCC2)cc1`, the AC40 was 13 µM.
The figure for `C[C@H]1CN([C@@H](C)CO)S(=O)(=O)c2ccc(C#Cc3ccccc3)cc2O[C@@H]1CN(C)C(=O)CN(C)C` is 28 µM; for `O=c1cc(-c2ccncc2)oc2c1ccc1ccccc12` it is 11.6 µM.
Take `CC(C)(C)C1CCc2c(sc(NC(=O)c3cccs3)c2C(N)=O)C1` (stereo not given): the AC40 was 18.3 µM.
Take `Cc1ccc2c(Cl)c(C)c(N3CCCCC3)nc2n1`: the AC40 was 11.5 µM.
`O=c1[nH]nc(-c2ccccc2)c2ccccc12`: the AC40 was 22.5 µM.
With `CCOC(=O)c1[nH]c2cc(OC)c(OC)cc2c1NC(=O)c1ccc2c(c1)OCO2`, the AC40 was 18.1 µM.
Take `O=C(Nc1ccc2ccccc2c1)c1cccc2ccccc12`: the AC40 was 8.55 µM.
On to `CC(C)CCn1c(N2CCCC2)nc2c1c(=O)[nH]c(=O)n2C`, for which the AC40 is 31.7 µM.
For `CCCCCCCCN1C(=O)[C@@H](CC(=O)N2CCN(C(=O)c3ccco3)CC2)C[C@@]2(C(=O)OC)C1=C[C@H](C1CCCC1)O[C@@H]2C`, the AC40 was 12 µM.
For `COC(=O)C1=C(C)N(Cc2cccc(C(F)(F)F)c2)C(=NCc2ccc(OC)cc2)NC1c1ccc(F)cc1` (stereo not given), the AC40 is 15.5 µM.
The figure for `COc1ccc(-n2sc3ccccc3c2=O)cc1` is 3.14 µM.
Regarding `CCCCc1c(Cc2ccccc2)ncn1CCc1ccccc1OC`, the AC40 is 14.3 µM.
The figure for `COc1ccc(OC)c(-c2nnc3n2N=C(c2ccc(OC)c(OC)c2)CS3)c1` is 0.564 µM; for `CCOC(=O)Cc1nn(Cc2ccccc2)c(=O)c2ccccc12` it is 1.61 µM.
